ChEMBL document CHEMBL1123527 (J Med Chem, 1986)
≈ marks a conversion by molar mass, not a printed value.

Experiments:
[1] = tested on: L1210; experiment: Compound was evaluated for the efflux (K) mediated transport with respect to L1210 cells; assay type: functional, cell-based; conditions: Mus musculus
[2] = tested on: P388; experiment: (§1) Compound at a optimum dose level of 0.5 mg/kg was evaluated in vivo against Murine P388/0 […] cells (1 X 10E6 ip implant); assay type: functional, Mus musculus; conditions: route intraperitoneal
[3] = tested on: P388; experiment: as §1; assay type: organism-based; parameters: dose 0.5 mg/kg, route intraperitoneal; conditions: mouse
[4] = tested on: P388; experiment: Compound at a optimum dose level of 2 mg/kg was evaluated in vivo against Murine P388/MTX resistant cells (1 X 10E6 ip implant); assay type: functional, Mus musculus; conditions: route intraperitoneal
[5] = tested on: Lacticaseibacillus casei; experiment: Compound was evaluated for inhibitory effect on growth of Lactobacillus casei MTX resistant; assay type: functional, organism-based
[6] = tested on: L1210; experiment: Compound was evaluated for the influx (Km) mediated transport with respect to L1210 cells; assay type: functional, cell-based; conditions: Mus musculus
[7] = tested on: Enterococcus faecium; experiment: Compound was evaluated for inhibitory effect on growth of Streptococcus faecium MTX resistant; assay type: functional, organism-based
[8] = tested on: Enterococcus faecium; experiment: Compound was evaluated for inhibitory effect on growth of Streptococcus faecium ATCC 8043; assay type: functional, organism-based
[9] = molecular target: T1, Thymidylate synthase (Lactobacillus casei, UniProt P00469); experiment: (§2) Compound was evaluated for inhibitory effect on the thymidylate synthase (TS) of Lactobacillus casei; assay type: functional, Lacticaseibacillus casei
T1 sequence (P00469 whole entry): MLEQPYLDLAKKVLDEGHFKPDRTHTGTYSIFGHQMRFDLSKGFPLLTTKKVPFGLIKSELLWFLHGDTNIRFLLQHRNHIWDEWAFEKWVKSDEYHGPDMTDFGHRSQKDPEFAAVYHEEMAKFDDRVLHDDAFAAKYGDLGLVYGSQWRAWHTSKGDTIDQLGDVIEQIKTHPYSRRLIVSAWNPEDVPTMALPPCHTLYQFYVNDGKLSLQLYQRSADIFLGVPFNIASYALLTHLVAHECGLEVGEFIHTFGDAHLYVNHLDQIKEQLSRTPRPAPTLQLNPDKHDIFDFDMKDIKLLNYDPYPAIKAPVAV

[10] = tested on: Lacticaseibacillus casei; experiment: Compound was evaluated for inhibitory effect on growth of Lactobacillus casei ATCC 7469; assay type: functional, organism-based
[11] = tested on: L1210; experiment: Compound was evaluated for rate of anabolism to polyglutamate accumulation in L1210 cells; assay type: functional, Mus musculus
[12] = molecular target: T2, Dihydrofolate reductase (Mus musculus, UniProt P00375); experiment: Compound was evaluated for inhibitory effect on dihydrofolate reductase (DHFR) from L1210 cells at Inhibitory constant (n=3); assay type: cell-based
T2 sequence (P00375 whole entry): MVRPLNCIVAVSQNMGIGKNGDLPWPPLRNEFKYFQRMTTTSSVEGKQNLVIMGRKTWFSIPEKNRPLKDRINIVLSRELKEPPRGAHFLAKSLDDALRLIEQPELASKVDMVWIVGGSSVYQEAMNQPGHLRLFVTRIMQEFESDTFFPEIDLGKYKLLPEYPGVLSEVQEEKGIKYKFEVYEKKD

[13] = tested on: L1210; experiment: cells; conditions: Mus musculus
[14] = tested on: P388; experiment: Compound at a optimum dose level of 0.5 mg/kg was evaluated in vivo against Murine P388/MTX resistant cells (1 X 10E6 ip implant); assay type: functional, Mus musculus; conditions: route intraperitoneal
[15] = tested on: L1210; experiment: Compound was evaluated for the influx (Km) mediated transport with respect to L1210 cells.; assay type: functional, cell-based; conditions: Mus musculus
[16] = molecular target: T1, Thymidylate synthase; experiment: as §2; parameters: species or system Lacticaseibacillus casei
[17] = Lacticaseibacillus casei, read-out: IC50

`CN(Cc1cnc2nc(N)nc(N)c2n1)c1ccc(C(=O)N[C@@H](CCC(=O)O)C(=O)O)cc1` [METHOTREXATE] gave a K [1] of 0.33 min⁻¹, a Survival time [2] of 19.7 days and a T/C [3] of 182%. The Survival time [4] was 20.3 days, the IC50 [5] was greater than 500000 ng/mL and the Km [6] was 3.3 µM. The IC50 [7] was 3000 ng/mL (≈ 6.6 µM) and the IC50 [8] was 0.26 ng/mL (≈ 0.000572 µM).
In the case of `CCOC(=O)CCC(NC(=O)c1ccc(NCc2cnc3nc(N)nc(N)c3c2)cc1)C(=O)OCC` (stereo not given), the Survival time [2] is reported as 16.2 days, the T/C [3] is reported as 151% and the Survival time [4] is reported as 20.8 days.
Work on `Nc1nc(O)c2cc(CNc3ccc(C(=O)NC(CCC(=O)O)C(=O)O)cc3)cnc2n1` (stereo not given) yielded an IC50 [9] of 1700 nM, an IC50 [5, 17] of 3500 ng/mL (≈ 7.95 µM) and an IC50 [10] of 0.054 ng/mL (≈ 0.000123 µM). It also gave an IC50 [7] of 49 ng/mL (≈ 0.111 µM) and an IC50 [8] of 0.09 ng/mL (≈ 0.000204 µM).
Molecule `Cc1c(CN(C)c2ccc(C(=O)NC(CCC(=O)O)C(=O)O)cc2)cnc2nc(N)nc(N)c12` (stereo not given) has a K [1] of 0.31 min⁻¹, a Survival time [2] of 19.7 days and a T/C [3] of 182%. The Survival time [4] was 20.8 days, the Rate [11] was 42.9 pM min-1 (g dry weight)-1 and the Km [6] was 3.2 µM. The Ki [12] was 0.00212 nM and the IC50 [13] was 0.24 nM.
Work on `Cc1c(CNc2ccc(C(=O)NC(CCC(=O)O)C(=O)O)cc2)cnc2nc(N)nc(N)c12` (stereo not given) yielded a K [1] of 0.26 min⁻¹, a Survival time [2] of 16.4 days and a T/C [3] of 151%. For the same molecule, the Rate [11] was 98.3 pM min-1 (g dry weight)-1, the Km [6] was 1.2 µM and the Ki [12] was 0.00293 nM. The Survival time [14] was 20.8 days and the IC50 [13] was 0.13 nM.
`CN(Cc1cnc2nc(N)nc(N)c2c1)c1ccc(C(=O)NC(CCC(=O)O)C(=O)O)cc1` (stereo not given) was tested, and the K [1] was 0.28 min⁻¹, the Survival time [2] was 18 days and the T/C [3] was 166%. The Survival time [4] was 20.3 days, the Rate [11] was 48.8 pM min-1 (g dry weight)-1 and the Km [15] was 4 µM. It also gave a Ki [12] of 0.00526 nM and an IC50 [13] of 2.85 nM.
Molecule `Nc1nc(N)c2cc(CNc3ccc(C(=O)NC(CCC(=O)O)C(=O)O)cc3)cnc2n1` (stereo not given) has a K [1] of 0.3 min⁻¹, a Survival time [2] of 15.8 days and a T/C [3] of 146%. For the same molecule, the Survival time [4] was 21.8 days, the Rate [11] was 84.2 pM min-1 (g dry weight)-1 and the Km [6] was 1.1 µM. For the same molecule, the Ki [12] was 0.00365 nM and the IC50 [13] was 0.63 nM.
`Cc1c(CNc2ccc(C(=O)NC(CCC(=O)O)C(=O)O)cc2)cnc2nc(N)nc(O)c12` (stereo not given) gave an IC50 [5, 17] greater than 10000 ng/mL, an IC50 [10] of 0.57 ng/mL (≈ 0.00125 µM) and an IC50 [7] greater than 10000 ng/mL. It also gave an IC50 [8] of 380 ng/mL (≈ 0.836 µM).
Work on `CCN(Cc1cnc2nc(N)nc(N)c2c1C)c1ccc(C(=O)NC(CCC(=O)O)C(=O)O)cc1` (stereo not given) yielded a K [1] of 0.29 min⁻¹, a Km [6] of 3.3 µM and a Ki [12] of 0.00264 nM. The IC50 [13] was 0.26 nM.
`Cc1c(CN(C)c2ccc(C(=O)NC(CCC(=O)O)C(=O)O)cc2)cnc2nc(N)nc(O)c12` (stereo not given) showed an IC50 [16] of 2.77 nM, an IC50 [5, 17] greater than 10000 ng/mL and an IC50 [10] of 4.6 ng/mL (≈ 0.00982 µM). For the same molecule, the IC50 [7] was greater than 10000 ng/mL and the IC50 [8] was 30 ng/mL (≈ 0.064 µM).
For `Nc1nc(N)c2nc(CNc3ccc(C(=O)N[C@@H](CCC(=O)O)C(=O)O)cc3)cnc2n1` [AMINOPTERIN], the K [1] was 0.31 min⁻¹, the Rate [11] was 165 pM min-1 (g dry weight)-1 and the Km [6] was 1.2 µM. It also gave a Ki [12] of 0.00355 nM.
